Results reported in US20070099996A1, “Pharmaceutical compositions of acitretin” (priority 2003, published 2007).

Key:
[1] = cited from earlier work
[2] = Comparative particle size distribution; format: physicochemical
Excerpt: Comparative particle size distribution of unmilled acitretin, air-jet milled acitretin, oil-milled and wet milled solid dispersion of acitretin.

For `COc1cc(C)c(/C=C/C(C)=C/C=C/C(C)=C/C(=O)O)c(C)c1C` [Acitretin], the Solubility in water [1] is listed as “practically insoluble”.
For `COc1cc(C)c(/C=C/C(C)=C/C=C/C(C)=C/C(=O)O)c(C)c1C` [Air-jet milled acitretin, acitretin], the “Particle size D10” value [2] was 2.13 microns, the “Particle size D50” value [2] was 5.51 microns and the “Particle size D90” value [2] was 14.48 microns.
With `COc1cc(C)c(/C=C/C(C)=C/C=C/C(C)=C/C(=O)O)c(C)c1C` [Unmilled acitretin, acitretin] the “Particle size D10” value [2] was 11.14 microns, the “Particle size D50” value [2] was 39.59 microns and the “Particle size D90” value [2] was 105.0 microns.
